Laboratory results reported in patent publication US20240034765A1, “SCG2 NEUROPEPTIDES AND USES THEREOF” (PRESIDENT AND FELLOWS OF HARVARD COLLEGE, priority 2020, published 2024).

Experiments:
[1] = test system: hM3DGq-expressing neurons; test: Cell-attached recording of CA1 PC in slice after bath application of CNO; assay type: cell-based, mice; conditions: cell-attached mode
CA1 neurons = test: AAV-based activity reporter mKate2 labelling of recently activated CA1 neurons; assay type: in vivo, mice; conditions: 24 h post-KA injection
Method: First, tests were performed to determine whether either of these forms of perisomatic inhibition (by PV-expressing INs and CCK-expressing INs) are differentially regulated onto Fos-expressing neurons compared to neighboring non-Fos-expressing neurons. Mice were exposed to a series of novel environments, which robustly activated Fos in a sparse subset of CA1 PCs (see e.g., FIG. 1A, FIG. 7A-FIG. 7D). To label these Fos-expressing neurons, an adeno-associated virus (AAV)-based reporter was used that expresses the fluorescent protein mKate2 selectively in recently activated neurons (see e.g., FIG. 1B); see e.g., Fenno et al. Nat Methods 11, 763-772, (2014), the content of which is incorporated herein by reference in its entirety. Using this reporter, a significant increase was detected in the number of recently activated neurons (mKate2^+) in mice exposed to 2-3 days (see e.g., FIG. 1D) of novel environments (NE) compared to control mice housed under standard (Strd) conditions (see e.g., FIG. 1C). This 2-3d timepoint was therefore appropriate for assessing the long-lasting effects of Fos and its late-response target gene(s), which were usually activated within 1-12 hours (h) of stimulus onset (see e.g., FIG. 1D).
Intraperitoneal (i.p.) injections.
Histology. Mice were anaesthetized with 10 mg/mL ketamine and 1 mg/mL xylazine in phosphate buffered saline (PBS) via i.p. injection. […]

CA1 = test: Cell health in CA1 24 h post-KA (Hoechst, NeuN, cleaved-caspase 3 immunostaining); assay type: in vivo, mice; conditions: within 24 h of KA injection
Method: FIG. 8A-8Q is a series of schematics, images, and graphs showing IN-to-CA1 PC paired recordings and cell health parameters in 24 h post-KA condition. FIG. 8A and FIG. 8G are schematics of the genetic strategy to label PV-INs (PV^Cre; Ai14; FIG. 8A) or CCK-INs (D1×5/6^Flp; CCK^Cre; Ai65; FIG. 8G). FIG. 8B and FIG. 8H are representative images of tdTomato fluorescence in the CA1 field. Scale: 100 μm. N=2 mice per line. FIG. 8C and FIG. 8I are bar graphs showing quantification of the fraction of (FIG. 8C) PV- or (FIG. 8I) CCK-to-CA1 PC synaptically-connected pairs from the overall number of pairs recorded in both vehicle (Veh.) and 24 h post-KA mice. In FIG. 8C, Veh., n=13/22; KA, n=19/30; in FIG. 8I, Veh., n=16/40; KA, […], where n=number of connections/total pairs. FIG. 8D and FIG. 8J are dot plots showing quantification of the maximum firing rate of (FIG. 8D) PV- or (FIG. 8J) CCK-INs from connected pairs. […] FIG. 8E and FIG. 8K are dot plots showing quantification of spike adaptation ratio of (FIG. 8E) PV- or (FIG. 8J) CCK-INs from connected pairs as in FIG. 8D and FIG. 8J, respectively. FIG. 8F and FIG. 8L are line graphs showing quantification of paired pulse ratios (PPRs) of uIPSCs at the indicated interstimulus intervals (ISI) for (FIG. 8F) PV- (Veh., n=13/6; KA, n=19/7) or (FIG. 8L) CCK- (Veh., n=16/9; KA, n=16/4) to-CA1 PC connected pairs, where n=number of pairs/number of mice. […]

specific cell types = conditions: cited from earlier work

For C[N+]1([O-])CCN(C2=Nc3cc(Cl)ccc3Nc3ccccc32)CC1 [CNO, clozapine N-oxide], the “firing rate of hM3DGq-expressing CA1 PC” value [1] was “firing rate increases”.

With C=C(C)[C@H]1CN[C@H](C(=O)O)[C@H]1CC(=O)O [kainic acid] the “average percentage of mKate2+ neurons over total number of DAPI cells” value (CA1 neurons) was 96% and the “cell death (Hoechst+, NeuN+, cleaved-caspase+ cells per 40-μm section, all layers of CA1)” value (CA1) was “did not induce cell death”.

In the case of “secretoneurin (TNEIVEEQYTPQSLATLESVFQELGKLTGPNNQ; listed as Homo sapiens) [33 aa]”, the “chemotaxic effects on specific cell types” value (specific cell types) is given as “chemotaxic effects”.
